Data on 1 molecule can be found in ChEMBL document CHEMBL1151371, “Plant Anticancer Agents. XI. 2,6-Dimethoxybenzoquinone as a Cytotoxic Constituent of Tibouchina pulchra” (1981).

In brackets after ≈: the same amount, converted by molar mass.

This assay concerns KB. Kind of assay: Cytotoxicity against human KB cells. In kind it is functional. To be noted: read-out: ED50 (the source's name).

On to `COC1=CC(=O)C=C(OC)C1=O` [2,6-DIMETHOXYQUINONE], for which the EC50 is 3.1 µg/mL (≈ 18.4 µM).
